Assay results: ChEMBL document CHEMBL4308841, “Synthesis, in vitro antiproliferative activity, and kinase inhibitory effects of pyrazole-containing diarylureas and diarylamides” (Eur J Med Chem, 2018)

Assays:
[1] = system: MDA-MB-435; assay: Growth inhibition of human MDA-MB-435 cells assessed as cell growth at 100 uM incubated for 48 hrs by sulforhodamine B assay relative to control; type: functional; conditions: MDA-MB-435, 48 h, read-out: Activity
[2] = system: UO-31; assay: Growth inhibition of human UO31 cells assessed as cell growth at 1 uM incubated for 48 hrs by sulforhodamine B assay relative to control; type: functional; conditions: UO-31, 48 h, read-out: Activity
[3] = system: HCC 2998; assay: Growth inhibition of human HCC2998 cells assessed as cell growth at 1 uM incubated for 48 hrs by sulforhodamine B assay relative to control; type: functional; conditions: HCC 2998, 48 h, read-out: Activity
[4] = system: M14; assay: Growth inhibition of human M14 cells assessed as cell growth at 1 uM incubated for 48 hrs by sulforhodamine B assay relative to control; type: functional; conditions: M14, 48 h, read-out: Activity
[5] = system: U-251; assay: Growth inhibition of human U251 cells assessed as cell growth at 0.1 uM incubated for 48 hrs by sulforhodamine B assay relative to control; type: functional; conditions: U-251, 48 h, read-out: Activity
[6] = system: SR; assay: Growth inhibition of human SR cells incubated for 48 hrs by sulforhodamine B assay; type: functional, cell-based
[7] = system: OVCAR-5; assay: Growth inhibition of human OVCAR5 cells assessed as cell growth at 0.1 uM incubated for 48 hrs by sulforhodamine B assay relative to control; type: functional; conditions: OVCAR-5, 48 h, read-out: Activity
[8] = system: HCC 2998; assay: Growth inhibition of human HCC2998 cells assessed as cell growth at 100 uM incubated for 48 hrs by sulforhodamine B assay relative to control; type: functional; conditions: HCC 2998, 48 h, read-out: Activity
[9] = system: CAKI-1; assay: Growth inhibition of human Caki1 cells incubated for 48 hrs by sulforhodamine B assay; type: functional, cell-based; conditions: CAKI-1, 48 h
[10] = system: MDA-MB-468; assay: Growth inhibition of human MDA-MB-468 cells assessed as cell growth at 100 uM incubated for 48 hrs by sulforhodamine B assay relative to control; type: functional; conditions: MDA-MB-468, 48 h, read-out: Activity
[11] = system: OVCAR-3; assay: Growth inhibition of human OVCAR3 cells assessed as cell growth at 1 uM incubated for 48 hrs by sulforhodamine B assay relative to control; type: functional; conditions: OVCAR-3, 48 h, read-out: Activity
[12] = system: HCT-116; assay: Growth inhibition of human HCT116 cells assessed as cell growth at 0.01 uM incubated for 48 hrs by sulforhodamine B assay relative to control; type: functional; conditions: HCT-116, 48 h, read-out: Activity
[13] = system: SNB-19; assay: Growth inhibition of human SNB19 cells assessed as cell growth at 1 uM incubated for 48 hrs by sulforhodamine B assay relative to control; type: functional; conditions: SNB-19, 48 h, read-out: Activity
[14] = system: RXF 393; assay: Growth inhibition of human RXF393 cells assessed as cell growth at 0.1 uM incubated for 48 hrs by sulforhodamine B assay relative to control; type: functional; conditions: RXF 393, 48 h, read-out: Activity
[15] = system: RPMI-8226; assay: Growth inhibition of human RPMI8226 cells assessed as cell growth at 0.1 uM incubated for 48 hrs by sulforhodamine B assay relative to control; type: functional; conditions: RPMI-8226, 48 h, read-out: Activity
[16] = system: MCF7; assay: Growth inhibition of human MCF7 cells assessed as cell growth at 100 uM incubated for 48 hrs by sulforhodamine B assay relative to control; type: functional; conditions: MCF7, 48 h, read-out: Activity
[17] = system: NCI-H226; assay: Growth inhibition of human NCI-H226 cells assessed as cell growth at 0.1 uM incubated for 48 hrs by sulforhodamine B assay relative to control; type: functional; conditions: NCI-H226, 48 h, read-out: Activity
[18] = system: SF-539; assay: Growth inhibition of human SF539 cells assessed as cell growth at 1 uM incubated for 48 hrs by sulforhodamine B assay relative to control; type: functional; conditions: SF-539, 48 h, read-out: Activity
[19] = system: BT-549; assay: Growth inhibition of human BT549 cells assessed as cell growth at 100 uM incubated for 48 hrs by sulforhodamine B assay relative to control; type: functional; conditions: BT-549, 48 h, read-out: Activity
[20] = system: MCF7; assay: Growth inhibition of human MCF7 cells assessed as cell growth at 1 uM incubated for 48 hrs by sulforhodamine B assay relative to control; type: functional; conditions: MCF7, 48 h, read-out: Activity
[21] = system: SN12C; assay: Growth inhibition of human SN12C cells assessed as cell growth at 100 uM incubated for 48 hrs by sulforhodamine B assay relative to control; type: functional; conditions: read-out: Activity
[22] = system: NCI-H226; assay: Growth inhibition of human NCI-H226 cells assessed as cell growth at 0.01 uM incubated for 48 hrs by sulforhodamine B assay relative to control; type: functional; conditions: NCI-H226, 48 h, read-out: Activity
[23] = system: BT-549; assay: Growth inhibition of human BT549 cells assessed as cell growth at 0.1 uM incubated for 48 hrs by sulforhodamine B assay relative to control; type: functional; conditions: BT-549, 48 h, read-out: Activity
[24] = system: OVCAR-8; assay: Growth inhibition of human OVCAR8 cells incubated for 48 hrs by sulforhodamine B assay; type: functional, cell-based; conditions: OVCAR-8, 48 h
[25] = system: HCC 2998; assay: Growth inhibition of human HCC2998 cells assessed as cell growth at 0.01 uM incubated for 48 hrs by sulforhodamine B assay relative to control; type: functional; conditions: HCC 2998, 48 h, read-out: Activity
[26] = system: SK-MEL-2; assay: Growth inhibition of human SK-MEL-2 cells incubated for 48 hrs by sulforhodamine B assay; type: functional, cell-based; conditions: SK-MEL-2, 48 h
[27] = system: K562; assay: Growth inhibition of human K562 cells assessed as cell growth at 100 uM incubated for 48 hrs by sulforhodamine B assay relative to control; type: functional; conditions: K562, 48 h, read-out: Activity
[28] = system: MOLT-4; assay: Growth inhibition of human MOLT4 cells incubated for 48 hrs by sulforhodamine B assay; type: functional, cell-based; conditions: MOLT-4, 48 h
[29] = system: A498; assay: Growth inhibition of human A498 cells assessed as cell growth at 100 uM incubated for 48 hrs by sulforhodamine B assay relative to control; type: functional; conditions: A498, 48 h, read-out: Activity
[30] = system: SR; assay: Growth inhibition of human SR cells assessed as cell growth at 1 uM incubated for 48 hrs by sulforhodamine B assay relative to control; type: functional; conditions: read-out: Activity
[31] = read-out: LC50 (the source's name)
[32] = read-out: pLC50 (the source's name) (converted)

O=C(Nc1cccc(-n2cc(-c3ccncc3)c(-c3cc(O)cc(Cl)c3)n2)c1)Nc1ccc(Cl)c(Cl)c1
growth at 100 µM [1]: -45% | growth at 1 µM [2]: 78% | growth at 1 µM [3]: 96% | growth at 1 µM [4]: 72% | growth at 0.1 µM [5]: 93% | GI50 ([6]; read-out: GI50): 1.3 µM | CC50 [6, 31]: > 100 µM | TGI ([6]; read-out: TGI): 42.4 µM | GI50 ([6]; read-out: pGI50 (converted)): 1.32 µM | CC50 [6, 32]: > 100 µM | TGI ([6]; read-out: pTGI (converted)): 4.27 µM | growth at 0.1 µM [7]: 90% | growth at 100 µM [8]: -55% | GI50 ([9]; read-out: GI50): 2.21 µM | CC50 [9, 31]: > 100 µM | TGI ([9]; read-out: TGI): 70.1 µM | GI50 ([9]; read-out: pGI50 (converted)): 2.19 µM | CC50 [9, 32]: > 100 µM | TGI ([9]; read-out: pTGI (converted)): 7.08 µM | growth at 100 µM [10]: -17% | growth at 1 µM [11]: 85% | growth at 0.01 µM [12]: 101% | growth at 1 µM [13]: 90% | growth at 0.1 µM [14]: 85% | growth at 0.1 µM [15]: 103% | growth at 100 µM [16]: -2% | growth at 0.1 µM [17]: 89% | growth at 1 µM [18]: 72% | growth at 100 µM [19]: -38% | growth at 1 µM [20]: 91% | growth at 100 µM [21]: -15% | growth at 0.01 µM [22]: 94% | growth at 0.1 µM [23]: 93% | GI50 ([24]; read-out: GI50): 2.02 µM | CC50 [24, 31]: > 100 µM | TGI ([24]; read-out: TGI): 50.6 µM | GI50 ([24]; read-out: pGI50 (converted)): 2 µM | CC50 [24, 32]: > 100 µM | TGI ([24]; read-out: pTGI (converted)): 5.01 µM | growth at 0.01 µM [25]: 104% | GI50 ([26]; read-out: GI50): 1.3 µM | CC50 [26, 31]: 9.1 µM | TGI ([26]; read-out: TGI): 40.4 µM | GI50 ([26]; read-out: pGI50 (converted)): 1.78 µM | CC50 [26, 32]: 9.12 µM | TGI ([26]; read-out: pTGI (converted)): 4.07 µM | growth at 100 µM [27]: 5% | GI50 ([28]; read-out: GI50): 1.43 µM | CC50 [28, 31]: > 100 µM | TGI ([28]; read-out: TGI): 51.8 µM | GI50 ([28]; read-out: pGI50 (converted)): 1.41 µM | CC50 [28, 32]: > 100 µM | TGI ([28]; read-out: pTGI (converted)): 5.13 µM | growth at 100 µM [29]: -79% | growth at 1 µM [30]: 62%
